{"source": "paper PMC5482218", "about": "(Archiv der Pharmazie, 2016)", "key": {"[1]": {"system": "L-type calcium channels (LTCC)", "assay": "High-throughput fluorescence Ca2+ flux assay", "conditions": "for Dose-response profile / effect on K+-induced Ca2+ influx: PC12 cells, Fura-2/AM, 50 mM KCl; for IC50: read-out: IC50 for the inhibition of K+-induced Ca2+ influx, PC12 cells loaded with Fura-2/AM, 10 min preincubation, depolarization with 50 mM KCl"}, "PC12 cells [2]": {"system": "PC12 cells", "assay": "LDH release cell viability assay, with and without 200 μM H2O2", "format": "cell-based, rat", "conditions": "for Attenuation of H2O2-induced LDH release: 200 μM H2O2 24 h, p<0.05; for LDH release by compound alone (inherent toxicity): absence of H2O2, 100 μM, PC12 cells"}, "PC12 cells [3]": {"system": "PC12 cells"}}}
{"molecule": "3-Hydroxy-3,11-oxatricyclo[6.3.0.0^2,6]undecane [Compound 11]", "values": [{"measurement": "Dose-response profile / effect on K+-induced Ca2+ influx", "setting": "[1]", "result": "potentiating effect"}]}
{"molecule": "O=C1C2C3CC4C2C(=O)C2C1C3C42", "note": "(stereo not drawn) [Compound 4, Pentacyclo[5.4.0.0^2,6.0^3,10.0^5,9]undecane-8,11-dione]", "values": [{"measurement": "Dose-response profile / effect on K+-induced Ca2+ influx", "setting": "[1]", "result": "no activity"}]}
{"molecule": "c1ccc(CNC23OC4C5C6CC(C7C6C4C72)C53)cc1", "note": "(stereo not drawn) [Compound 7a, 8-benzylamino-8,11-oxapentacyclo[5.4.0.0^2,6.0^3,10.0^5,9]undecane]", "values": [{"measurement": "Attenuation of H2O2-induced LDH release", "setting": "PC12 cells [2]; compound at 1, 10 and 100 μM", "result": "significant attenuation of LDH release"}, {"measurement": "LDH release by compound alone (inherent toxicity)", "setting": "PC12 cells [2]", "result": "some LDH release"}, {"measurement": "Reduction of H2O2-induced toxicity (Trypan blue exclusion)", "setting": "PC12 cells [3]; 200 μM H2O2, compound at 1, 10 and 100 μM, p<0.05", "result": "significant reduction"}, {"measurement": "IC50", "setting": "[1]", "result": 86, "unit": "µM"}]}
{"molecule": "OC12C3C4CC5C6C4C1C6C(C53)N2Cc1ccccc1", "note": "(stereo not drawn) [Compound 8a, N-Benzyl-3-hydroxy-4-azahexacyclo[5.4.1.0^2,6.0^3,10.0^5,9. 0^8,11]dodecane]", "values": [{"measurement": "IC50", "setting": "[1]", "result": 35, "unit": "µM"}]}
{"molecule": "OC12C3C4CC5C6C4C1C6C(C53)N2CCc1ccccc1", "note": "(stereo not drawn) [Compound 8b, N-Phenylethyl-3-hydroxy-4-azahexacyclo[5.4.1.0^2,6.0^3,10 0^5,9.0^8,11]dodecane]", "values": [{"measurement": "Attenuation of H2O2-induced LDH release", "setting": "PC12 cells [2]; compound at 1 and 10 μM", "result": "significant attenuation of LDH release"}, {"measurement": "LDH release by compound alone (inherent toxicity)", "setting": "PC12 cells [2]", "result": "some LDH release"}, {"measurement": "Protection in the cell viability assay (Trypan blue)", "setting": "PC12 cells [3]; 200 μM H2O2, concentration not stated", "result": "able to offer protection"}, {"measurement": "Change in cell viability by compound alone (Trypan blue exclusion)", "setting": "PC12 cells [3]; absence of H2O2, 10 and 100 μM, versus untreated cells", "result": "slight decrease in cell viability"}, {"measurement": "IC50", "setting": "[1]", "result": 8, "unit": "µM"}]}
{"molecule": "CCCCCCCN1C2C3C4CC5C6C4C2C6C1(O)C53", "note": "(stereo not drawn) [Compound 8c, N-Heptyl-3-hydroxy-4-azahexacyclo[5.4.1.0^2,6.0^3,10.0^5,9. 0^8,11]dodecane]", "values": [{"measurement": "IC50", "setting": "[1]", "result": 7, "unit": "µM"}]}
{"molecule": "O=C1CCC2CC3CCC(=O)C3C12", "note": "(stereo not drawn) [Compound 10, Tricyclo[6.3.0.0^2,6]undecane-3,11-dione]", "values": [{"measurement": "Dose-response profile / effect on K+-induced Ca2+ influx", "setting": "[1]", "result": "slight potentiating effect but no antagonistic activity"}]}
{"molecule": "COc1cccc(CN2C3CCC4CC5CCC2C5C43)c1", "note": "(stereo not drawn) [Compound 14e, N-(3-Methoxybenzyl)-3,11-azatricyclo[6.3.0.0^2,6]undecane]", "values": [{"measurement": "IC50", "setting": "[1]", "result": 11, "unit": "µM"}]}
{"molecule": "c1cc(CN2C3CCC4CC5CCC2C5C43)ccn1", "note": "(stereo not drawn) [Compound 14f, N-(Pyridin-4-ylmethyl)-3,11-azatricyclo[6.3.0.0^2,6]-undecane]", "values": [{"measurement": "IC50", "setting": "[1]", "result": 5, "unit": "µM"}]}
{"molecule": "N-Benzyl-3,11-azatricyclo[6.3.0.0^2,6]undecane [Compound 14a]", "values": [{"measurement": "IC50", "setting": "[1]", "result": 74, "unit": "µM"}]}
{"molecule": "N-Cyclohexylmethyl-3,11-azatricyclo[6.3.0.0^2,6]undecane [Compound 14d]", "values": [{"measurement": "IC50", "setting": "[1]", "result": 68, "unit": "µM"}]}
